In assay [1] the target is T1, Mac-1 receptor (Homo sapiens, UniProt P05107+P11215). Briefly: Competition of 125I-fibrinogen binding to stimulated neutrophils. Set-up: Separate aliquots of the resuspended Mac-1 receptor-bearing neutrophils were stimulated with 10 μM of the chemotactic peptide; endogenous in cells; host or cells: neutrophils from blood of normal volunteers, stimulated with fMLP. The procedure: Fibrinogen was purified as described in Example 1 and radiolabelled as described for D30 in Example 2A. Mac-1 receptor-bearing neutrophils were prepared as described in 2B. Separate aliquots of stimulated neutrophils at a concentration of 1.5×10^7 cells/ml were simultaneously incubated with a predetermined subsaturating dose of ^125 I-labelled fibrinogen (50 μg/ml) and increasing concentrations of various competing proteins for 20 minutes at room temperature. The reaction in the admixture was terminated by centrifugation through silicon oils as described in Example 2. The amount of labelled Mac-1 receptor:fibrinogen complex was determined by gamma detection. Non-specific binding was calculated as described in Example 2 and subtracted from the total to calculate specific binding.
T1 sequence (P05107 23-769, other chains not shown): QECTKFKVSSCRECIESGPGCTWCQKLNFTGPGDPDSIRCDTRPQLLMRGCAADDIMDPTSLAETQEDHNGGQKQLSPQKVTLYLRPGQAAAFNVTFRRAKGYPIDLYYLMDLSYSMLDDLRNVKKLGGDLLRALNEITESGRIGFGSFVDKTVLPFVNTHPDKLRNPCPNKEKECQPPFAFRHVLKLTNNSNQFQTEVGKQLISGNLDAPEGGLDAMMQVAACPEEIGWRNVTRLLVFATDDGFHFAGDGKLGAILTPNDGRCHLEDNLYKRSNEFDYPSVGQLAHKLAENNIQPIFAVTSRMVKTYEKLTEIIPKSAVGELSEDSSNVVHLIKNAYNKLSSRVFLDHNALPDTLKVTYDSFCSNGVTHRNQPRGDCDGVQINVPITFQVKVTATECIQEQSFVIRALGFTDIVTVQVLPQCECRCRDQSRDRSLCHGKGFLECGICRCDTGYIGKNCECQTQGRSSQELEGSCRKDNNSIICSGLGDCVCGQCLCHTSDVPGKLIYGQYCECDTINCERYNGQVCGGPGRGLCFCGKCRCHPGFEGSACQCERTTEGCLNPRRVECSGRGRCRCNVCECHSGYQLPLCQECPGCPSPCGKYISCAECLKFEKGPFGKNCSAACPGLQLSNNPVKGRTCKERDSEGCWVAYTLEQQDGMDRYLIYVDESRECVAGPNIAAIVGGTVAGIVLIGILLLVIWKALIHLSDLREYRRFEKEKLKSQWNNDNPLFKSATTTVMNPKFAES
Unlabelled fibrinogen and fibrinogen fragments X, D:E and D obtained as described in Example 1A and B were evaluated for their ability to compete for labelled fibrinogen binding to stimulated neutrophils.
Fibrinogen fragments E and D30 obtained as described in Example 1B were evaluated for their ability to compete for labelled fibrinogen binding to stimulated neutrophils.

For the next assay, the system named is neutrophils or monocytes. Put plainly: Cell attachment to polypeptide-coated wells. In kind it is cell-based, human. Here is the method:
To determine the Mac-1 receptor-binding site on the gamma chain of D30, the synthetic polypeptides prepared above were separately evaluated in cell attachment assays. For these assays, wells of 96-well microtiter plates (Linbro/Titertek; Flow Laboratories, VA) were coated with 60 μl of a 1 mg/ml solution of individual synthetic polypeptides prepared above. The wells containing the dissolved polypeptides were maintained for 16 hours at 4° C. The wells were then washed twice with PBS and blocked for 30 minutes with 0.1% BSA in PBS. After a final wash, 100 μl of DMEM containing 1% fetal bovine serum and 2×10^5 cells/ml of either neutrophils or monocytes prepared respectively in Example 2B and Example 8D were admixed into each well. The cells were maintained for 30 minutes at room temperature to allow the cells to attach to the polypeptide-coated wells. Non-adherant cells were removed from the wells by washing twice with PBS. […]
Adherent cells were quantitated by staining with 0.5% crystal violet. […] The optical density (O.D.) at 550 nm was determined with an ELISA reader (Biotek Instruments). Non-specific adherence was determined by plating cells on BSA-coated wells for the appropriate period of time. Specific adhesion to a given polypeptide substrate was calculated by subtracting the O.D. obtained with cells plated on BSA from that observed for cells plated on individual polypeptides. […]

The test system of a further assay is THP-1 cells. Put plainly: Inhibition of THP-1 cell attachment to fibrinogen-coated wells. It counts as cell-based, human. Here is the method: Cell attachment assays were performed to determine if the Plb polypeptide (SEQ ID NO 13) which was derived from the gamma chain of D30 from residue 195 to residue 201 would inhibit the binding of THP-1 cells to fibrinogen-coated plates as effectively as the larger polypeptide, P1 (SEQ ID NO 12). The assays were performed as described in Example 8C with the following modifications: the microtiter wells were coated with 10 μg/ml of fibrinogen overnight at room temperature to form fibrinogen-coated wells; the unoccupied sites on the wells were then blocked to prevent non-specific background with 3% gelatin for 30 minutes at room temperature; 2×10^5 THP-1 cells prepared as described in Example 8D2) were separately admixed with the polypeptides P1, […] and L10, the latter of which served as a control, ranging in concentration from 0.03 mg/ml to 1 mg/ml to form THP-1 cell-polypeptide admixtures; the resultant admixtures were maintained for 30 minutes at room temperature after which time the cells were admixed to the fibrinogen-coated plates as described in Example 8C.
The results of the inhibition of cell attachment assay are shown above in Table 2. The absorbance of crystal violet stain, indicating the relative number of cells that attached to the fibrinogen-coated wells, was measured at 600 nm. The absorbance values are tabulated in columns according to the concentration of each polypeptide separately tested in the assay. […] These six amino acid residues comprise the Mac-1 receptor binding site of fibrinogen.

For assay [2], the target named is T1, Mac-1 receptor. Put plainly: Inhibition of 125I-P1 binding to THP-1 cells. Also on record: Separate aliquots of the resuspended Mac-1 receptor-bearing neutrophils were stimulated with 10 μM of the chemotactic peptide; endogenous in cells. Conditions: one hour. The procedure: Similar binding assays and inhibition thereof were performed using the monocytic cell line THP-1 (ATCC TIB 202, Bethesda, Md.). THP-1 cells were maintained in RPMI 1640 supplemented with 10% fetal bovine serum (HyClone, Logan, UT), 20 mM Hepes, 100 μg/ml gentamycin, 2 mM L-glutamine and 10 μM beta-mercaptoethanol. The competitive inhibitors evaluated in the assay to compete for the binding of the labeled P1 polypeptide to THP-1 cells included the following:D30 prepared as described in Example 1; the irrelevant polypeptide L10 described above; the monoclonal antibody IB4 which recognizes the beta subunit of the Mac-1 receptor (Wright et al., Proc. Natl. Acad. Sci., USA, 80:5699-5703 (1983); the monoclonal antibody M1/70 which recognizes the alpha subunit of the Mac-1 receptor (Ho et al., J. Biol. Chem., 258:2766-2769 (1983); and a monoclonal antibody against tissue factor as described by Morrisey et al., Thromb. Res., 52:247-261 (1988 ).
The assays in which D30 or polypeptides derived therefrom were performed as described above and in Example 6. The assays in which antibodies were used as competitive inhibitors were performed as described in Example 2C using 50 μg/ml of each antibody. […] The amount of binding of radiolabelled P1 polypeptide to THP-1 cells was measured after a […] maintenance period in the absence or presence of unlabelled competitors. […]

For assay [3], the target named is T1, Mac-1 receptor. Put plainly: Binding of 125I-P1 to monocytes and competition. Also on record: Separate aliquots of the resuspended Mac-1 receptor-bearing neutrophils were stimulated with 10 μM of the chemotactic peptide; endogenous in cells; host or cells: neutrophils from blood of normal volunteers, stimulated with fMLP. Here is the method: Anticoagulated blood was prepared as described in Example 2B. After resuspending the pelleted erythrocytes, mononuclear and polynuclear cells with a volume equal to the starting blood volume with chilled 0.14M PBS, 35 ml of the cell suspension were layered onto 15 ml of Ficoll-Hypaque (Pharmacia) in a 50 ml polypropylene tube and centrifuged at 400×g for 40 minutes at room temperature. The cells at the interface were carefully removed with sterile plastic pipettes and were then washed two times with excess 5 mM PBS-EDTA (ethylene diamine tetracetic acid). The washed cells were then centrifuged first at 400×g for 20 minutes at 4° C., the pellet was resuspended as above, then the suspension was centrifuged again at 120×g for 12 minutes at 4° C. The cell pellet was again resuspended to form a PMBC cell suspension. […]
Human monocytes were purified from the platelet-free PMBC cell suspension as described by Fischer et al., Academic Press, Inc., New York, pp: 43-47 (1981). […] The purity of the monocyte preparation was greater than 90% as assessed by alpha-naphthyl acetate esterase staining and the viability was greater than 95% as judged by trypan blue exclusion. […]
The specific cell-associated binding of radiolabelled P1 to monocytes was measured over 60 minutes at 10 minute intervals and was calculated as described in Example 6. […]

The target in assay [4] is T1, Mac-1 receptor. Put plainly: Inhibition of 125I-fibrinogen binding to THP-1 cells by polypeptide. Also on record: Separate aliquots of the resuspended Mac-1 receptor-bearing neutrophils were stimulated with 10 μM of the chemotactic peptide; endogenous in cells; host or cells: neutrophils from blood of normal volunteers, stimulated with fMLP. Here is the method: The specificity of the P1 polypeptide for the Mac-1 receptor on THP-1 cells was confirmed in assays where the binding of purified intact fibrinogen to THP-1 cells was inhibited by P1 but not by the irrelevant polypeptide, L10. The assays were performed as described in Example 6 with the exception that THP-1 cells prepared as described in Example 8D were used instead of neutrophils. The amount of polypeptide used in the assay ranged in concentration from 7 μg/ml up to 60 μg/ml.
The amount of radiolabelled fibrinogen bound to THP-1 cells was expressed as molecules/cell ×1000 and plotted on the ordinate against increasing polypeptide concentrations as shown in FIG. 7.

Values joined by “and” are separate entries in the source; they are usually repeats but may differ in a detail not shown here. Identical values can stand only once. “Also recorded” adds a separate entry of the source.

In the case of fibrinogen, the “IC50 for inhibition of 125I-fibrinogen binding to stimulated neutrophils” value at Mac-1 receptor [1] (50 μg/ml 125I-fibrinogen, 20 minutes at room temperature) fell in the range of 25 to 50 µg/mL. Moreover, the “competition of 125I-fibrinogen binding to stimulated neutrophils (in words)” value on Mac-1 receptor [1] (increasing concentrations of competitor) is given as “compete”. Further, on Mac-1 receptor [1] (stimulated neutrophils, 50 μg/ml 125I-fibrinogen), the “125I-fibrinogen specifically bound in the absence of competitors” value is 80,200±8,000 molecules/cell and 99,600±4,500 molecules/cell.

On to “KYGWTVFQKRLDGSV [P1, N-terminal lysine-tyrosine-glycine added]”, for which the “promotion of cell attachment (in words)” value in the assay on neutrophils or monocytes was “promoting cells attachment”. For the same substance, the “inhibition of THP-1 cell attachment to fibrinogen (in words)” value in the assay with THP-1 cells (0.03 to 1 mg/ml polypeptide) is recorded as “effective at inhibiting cell attachment at all concentrations”. The “polypeptide concentration giving maximal inhibition of THP-1 binding to fibrinogen” value in the assay with THP-1 cells (0.03 to 1 mg/ml tested) is on record as 0,125 mg/ml. Also, the “Absorbance at 600 nm (THP-1 cells attached to fibrinogen)” value in the assay on THP-1 cells (polypeptide 0.03 mg/ml) was 1.02; in the assay with THP-1 cells (polypeptide 0.125 mg/ml), 0.42; with THP-1 cells (polypeptide 0.5 mg/ml), 0.36; with THP-1 cells (polypeptide 0.60 mg/ml), 1.12; in the assay on THP-1 cells (polypeptide 1.0 mg/ml), 0.48. Also, the “total specific binding of P1 to THP-1 cells in the absence of competitors” value with Mac-1 receptor [2] is “approximately 16,000 cpm”. Also, the “competition of 125I-P1 binding to monocytes” value with Mac-1 receptor [3] (1 mg/ml cold polypeptide) is “competitively inhibited; also recorded: competed”. Also, in the assay with Mac-1 receptor [3] (one hour assay, 20,000 cpm 125I-P1), the “binding of radiolabelled P1 to monocytes” value is recorded as “binds to monocytes in a non-saturable curve”. Besides, in the assay with Mac-1 receptor [4] (7 to 60 μg/ml polypeptide), the “inhibition of fibrinogen binding to THP-1 cells (in words)” value is on record as “inhibited”. In the assay with Mac-1 receptor [4] (7 to 60 μg/ml tested), the “polypeptide concentration giving maximal inhibition of fibrinogen binding to THP-1 cells” value was determined as 20 µg/mL.

The values are drawn from patent US5473051A, “Inhibition of Mac-1 receptor binding to fibrinogen using D30 homologs” (The Scripps Research Institute, priority 1991, dated 1995).
